Where two headings read alike, the source gives them in different places.

The subject of one test is conscious dogs. In words: Hypotensive effects in conscious dogs before and after furosemide. The test is classed as in vivo. As to the method:
(§1) The hypotensive effects of 2-butyl-4-chloro-1-[2'-(1H-tetrazol-5-yl)biphenyl-4-yl)methyl]-5-hydroxymethylimidazole sodium salt were compared before and after furosemide administration to conscious dogs. […] Plasma renin activity (PRA) in these animals was 1.5±0.5 ng AI/ml/hr. Four days later, furosemide was given to three of these dogs at 10 mg/kg im at 18 and 2 hours before the experiment and increased PRA to 19.9±7.2 ng AI/ml/hr. […] Thus a combined therapy of these two classes of drugs will be likely to increase the response rate to therapy among hypertensive patients.

The subject of a further test is pressor response to AII. The experiment in a line: Inhibition of the pressor response to AII in conscious dogs. The test is classed as in vivo. How it is done: as §1
A further test has as its target AII receptor. In words: Angiotensin II receptor binding (displacement of 3H-AII). The note with it: read-out: Angiotensin II Receptor Binding IC50, rat adrenal cortical microsomes, 2 nM 3H-AII, 1 hour, room temperature. The method, boiled down: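 The receptor source was rat adrenal cortical microsomes in Tris buffer, incubated with 2 nM ³H-AII plus or minus test compound for 1 h at room temperature. Bound and free ligand were separated by rapid filtration on glass-fibre filters. Filter-bound ³H-AII was counted by scintillation.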
On the technique in general: In a radioligand displacement assay an active substance lowers the binding of a labelled ligand.

For another test, the system named is Renal Hypertensive Rats. In words: Antihypertensive effects in renal hypertensive rats.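 For all read-outs here: effective means a significant fall in blood pressure at the dose shown or below.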 The format is in vivo. Conditions: Rattus norvegicus; for minimal effective dose at 3 mg/kg / minimal effective dose at 30 mg/kg: Table 26; for minimal effective dose at 30 mg/kg: oral. The procedure, abridged: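 Renal hypertensive rats (renin-driven AII elevation) dosed orally at 100 mg/kg and/or i.v. via jugular cannula at 10 mg/kg; a second set used 30 mg/kg oral and 3 mg/kg i.v. Arterial pressure recorded continuously via carotid cannula and compared with pretreatment levels.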

Another test deals with AII. Conditions: cited from earlier work.
Test [1] has as its system renal vasoconstrictor effect of NSAID. The note with it: cited from earlier work.
The subject of test [2] is Plasma renin activity (PRA). The experiment in a line: Plasma renin activity in conscious dogs. The format is in vivo. Conditions: three dogs, furosemide 10 mg/kg im at 18 and 2 hours before; PRA before 1.5±0.5. How it is done:
as §1

In the case of `CCCCc1nc(Cl)c(CO)n1Cc1ccc(-c2ccccc2-c2nnn[nH]2)cc1`, the “blood pressure, after furosemide” value with conscious dogs (conscious dogs, cumulative iv 0.3 to 3 mg/kg after furosemide 10 mg/kg im at 18 and 2 hours before) is recorded as “caused a significant decrease in blood pressure in a dose-dependent manner”. The “blood pressure, before furosemide” value in the test with conscious dogs (normotensive conscious dogs, cumulative iv 0.3 to 3 mg/kg, n=4) is reported as “did not lower blood pressure”. Besides, the “inhibition of pressor response to AII, before furosemide” value in the test on pressor response to AII (cumulative iv 0.3 to 3 mg/kg, AII 0.1 μg/kg iv, 10 min post dose) was “effective in inhibiting the pressor response to AII”. In addition, the “inhibition of pressor response to AII, after furosemide” value with pressor response to AII (iv, after furosemide 10 mg/kg im) is listed as “inhibited the pressor response to AII at the two higher doses”.

Regarding `CCCCc1nc(Cl)c(-c2[nH]nnc2C(=O)O)n1Cc1ccc(-c2ccccc2-c2nnn[nH]2)cc1` [Example 345, 2-n-Butyl-5-(4-carboxy-1,2,3-triazol-5-yl)-4-chloro-1-[(2'-(1H-tetrazol-5-yl)biphenyl-4-yl)methyl]imidazole], the half-maximal inhibitory concentration (IC50) at AII receptor (Table 26) is 1100 nM. Besides, in the test with Renal Hypertensive Rats (intravenous), the minimal effective dose at 3 mg/kg is < 3 mg/kg.

In the case of `CCCCc1nc(Cl)c(CN2CCN(c3ccccc3OC)CC2)n1Cc1ccc(-c2ccccc2C(=O)O)cc1` [Example 346, 2-n-Butyl-1-[(2'-carboxybiphenyl-4-yl)methyl]-4-chloro-5-[(1-(2-methoxyphenyl)piperazin-4-yl)methyl]imidazole], the IC50 on AII receptor (Table 25) is 740 nM. Further, the minimal effective dose at 10 mg/kg in the test with Renal Hypertensive Rats (Table 25, intravenous, 10 mg/kg or less) is < 10 mg/kg.

With `CCCCc1nc(Cl)c(C(=O)N2CCN(c3ccccc3OC)CC2)n1Cc1ccc(-c2ccccc2-c2nnn[nH]2)cc1` [Example 347, 2-n-Butyl-4-chloro-5-[4-(2-methoxyphenyl)piperazin-1-ylcarbonyl]-1-[(2'-(1H-tetrazol-5-yl)biphenyl-4-yl)methyl]imidazole], the IC50 at AII receptor (Table 26) came out at 200 nM. In the test with Renal Hypertensive Rats (intravenous), the minimal effective dose at 3 mg/kg was < 3 mg/kg. For the same compound, in the test with Renal Hypertensive Rats, the minimal effective dose at 30 mg/kg is < 30 mg/kg.

With `CCCCc1nc(C(=O)N2CCN(c3ccccc3OC)CC2)c(Cl)n1Cc1ccc(-c2ccccc2-c2nnn[nH]2)cc1` [Example 348], on AII receptor (Table 26), the IC50 stood at 1300 nM. Also, in the test on Renal Hypertensive Rats (intravenous), the minimal effective dose at 3 mg/kg is < 3 mg/kg. The minimal effective dose at 30 mg/kg in the test with Renal Hypertensive Rats was > 30 mg/kg.

As for `CNCC(=O)N[C@@H](CCCN=C(N)N)C(=O)N[C@H](C(=O)N[C@@H](Cc1ccc(O)cc1)C(=O)N[C@H](C(=O)N[C@@H](Cc1cnc[nH]1)C(=O)N1CCC[C@H]1C(=O)N[C@@H](C)C(=O)O)C(C)C)C(C)C` [Saralasin, [Sar^1, Ala^8] AII], the “antagonism of the actions of AII” value in the test on AII (Pals et al. 1971, pithed rats) was “one of the most potent competitive antagonists of the actions of AII”. The arterial pressure result with AII (mammals and man, elevated pressure dependent on circulating AII) was “lower arterial pressure in mammals and man”. In addition, in the test on AII (oral doses), the oral efficacy result was “oral doses being ineffective”. The pressor effects result in the test on AII (when the pressure is not sustained by AII) was “generally elicits pressor effects when the pressure is not sustained by AII”. Also, the “effect on renal vasoconstrictor effect of indomethacin and meclofenamate” value in test [1] (dogs) was “inhibit the renal vasoconstrictor effect of indomethacin and meclofenamate in dogs”.

In the case of `C[C@H](CS)C(=O)N1CCC[C@H]1C(=O)O` [captopril, Captopril], the “effect on renal vasoconstrictor effect of indomethacin” value in test [1] (dogs with non-hypotensive hemorrhage) is reported as “reverse the renal vasoconstrictor effect of indomethacin in dogs”.

As to `NS(=O)(=O)c1cc(C(=O)O)c(NCc2ccco2)cc1Cl` [furosemide], in test [2], the “Plasma renin activity (PRA) after furosemide” value was found to be 19.9±7.2 ng AI/ml/hr.

Broadly, the IC50 is the concentration that gives 50% inhibition. In general, minimal effective dose refers to the smallest amount tested that counted as effective.

These data come from patent US5138069A (E. I. Du Pont de Nemours and Company, priority 1988, dated 1992).
